Results on 3 compounds are retold here after patent US20130085109A1, “METHODS OF CARDIOVASCULAR PATIENT TREATMENT USING SUBSTANCES SUFFICIENT TO REDUCE ACTIN DEPOLYMERIZATION” (priority 2008, published 2013).

Assay [1] deals with carotid artery rings (endothelial cells). The experiment in a line: Superoxide measurement (L012 luminescence) in carotid artery rings treated in vitro. The assay is classed as cell-based, swine. The protocol:
For superoxide measurements, carotid arteries (vessel segments 104) from both sides were quickly removed and placed into a heated (37° C.) chamber filled with HEPES buffered PSS containing (in mM): D-glucose, 5.5; KCl, 4.7; NaCl, 142; HEPES sodium salt, 2.7; MgSO4, 1.17; CaCl2, 2.79; at pH 7.4. For NADPH oxidase activity assays or protein expression measurements by western blot, the left and right carotid arteries were removed and saved in a −80° C. freezer until analysis.
The harvested vessels (vessel segments 104) were cut into small rings at approximately 3 mm in length in 37° C. HEPES PSS buffer. The rings were first transferred into […] with HEPES-PSS and incubated at 37° C. for 5 minutes. Various compounds [cytochalason D, latrunculin B, jasplakinolide, and phorbol 2-myrisate 13-acetate (PMA)] were then added into each well for treatment. The L012 (100 μM) was added last and the luminescence was recorded for 60 minutes at 1 minute intervals using a plate reader from Perkin Elmer (En vision Xcite Multilabel Reader, Perkin Elmer, Shelton, Conn.) at ultra-luminecent mode. The total reaction volume was 200 μl. After each recording, the sample rings were air dried and weighed. Each condition was tested in triplicate. To remove the endothelial cells, the vessel ring was gently rubbed against the tip of a pair of forceps.
Basal superoxide production was detected in the carotid artery (vessel segment 104) samples obtained from control animals with forward blood flow as shown in FIG. 2A. Rings were incubated with or without treatments of cytochalasin D (cyt D), latrunculin (Latru) or jasplakinolide (Jasp) and the superoxide production were recorded using plate reader at ultrasensitive mode for luminescence to generate the results shown in FIG. 2A. The luminescence recorded from rings without treatment was considered at base level and taken as 100%. The luminescence recorded under other conditions was expressed as percentage of base level. The superoxide production induced by PMA was used as positive control as identified in FIG. 2B. Each condition was tested in triplicate from each animal. The significance of increased superoxide production was test using ANOVA (p=0.004 for cytochalasin D, n=10 and p=0.044 for Latrucillin, n=3), and the data are mean±1SD.

In assay [2] the test system is carotid artery with reverse flow. The experiment in a line: Superoxide measurement (L012 luminescence) in carotid arteries after in vivo reverse flow with drug treatment. More on the design: species or system swine. The source says: To create a full reverse flow, and as part of an exemplary system 100 of the present disclosure, two tubes 102, such as two pieces of silicone tubing, were inserted into the two respective ends of the isolated vessel segment 104 as shown in FIGS. 1A and 1B. In at least one embodiment, tubes 102 are configured to fit within a portion of isolated vessel segment 104, and in at least another embodiment, tubes 102 are configured so surround the ends of vessel segment and are held in place with a connector (not shown). […]
The harvested vessels (vessel segments 104) were cut into small rings at approximately 3 mm in length in 37° C. […] The L012 (100 μM) was added last and the luminescence was recorded for 60 minutes at 1 minute intervals using a plate reader from Perkin Elmer (En vision Xcite Multilabel Reader, Perkin Elmer, Shelton, Conn.) at ultra-luminecent mode. […]
Samples were obtained from carotid arteries with forward (solid bar) or reverse (empty bar) flow (FF or RF, respectively) or reverse flow plus jasplakinolide (Jasp) treatment (lined bar). The basal level of superoxide measured under forward flow condition was taken as 100%, and all other measurements were expressed as percentage to the basal level. Each measurement was performed in triplicate and data were expressed as mean±1SD. […]

In assay [3] the test system is NADPH oxidase. The experiment in a line: NADPH oxidase activity assay in subcellular membrane preparations of vessels. The class given is in vivo, swine. How it is done: (§1) In some experiments (n=3), the carotid arteries were treated with jasplakinolide to stablize the actin. […] The right side vessel 114 was filled with saline and served as control. The reverse or forward flows were then ensured for 2 hrs (for superoxide measurement) or 4 hrs (for NADPH oxidase measurment by western blot) after clamps 116, 118 were released. A low concentration of jasplakinolide was used, which was sufficient to stabilize actin and to avoid possible non-specific effects at high concentration. […]
Stored samples were placed in ice cold lysis buffer containing 20 mM KH2PO4, 1 mM EGTA and protease inhibitor cocktail (Sigma-Aldrich, St. Louis, Mo.) and homogenized with an electric homogenizer (Power Gen 35, Fisher Scientific) for 20 seconds each. […] The enzyme activity was determined in 200 μl assay buffer at pH7.4 containing the following (in mM): HEPES, 25; NaCl, 120; KCl, 5.9; MgSO4, 1.2; CaCl2, 1.75; glucose, 11; β-NADPH, 0.1; and L012, 0.1. The reaction started by adding 10 μL of homogenate, and the luminescence was measured every 15 seconds for 5 minutes by Perkin Elmer plate reader at ultra-sensitive mode. The protein concentration was determined by BCA kit (Bio-Rad) and the results of enzyme activity were standardized to protein level of each sample. […]

In assay [4] the test system is gp91phox and p47phox. The experiment in a line: Western blot for NADPH oxidase expression. Particulars: jasplakinolide, four hours of treatment. The assay is classed as in vivo, swine. The protocol: as §1
The artery segments were homogenized in the lysis buffer containing 50 mM glycerophosphate, 100 μM sodium orthovanadate, 2 mM magnesium chloride, 1 mM EGTA, 0.5% Triton X-100, 1 mM DL-dithiothreitol, 20 μM pepstatin, 20 μM leupeptin, 0.1 U/ml aprotinin, and 1 mM phenylmethylsulfonyl fluoride and then incubated on ice for 1 hour. […] The total protein was measured by a BCA kit (Bio-Rad). […]
The NADPH oxidase activity was examined using an enzyme assay in subcellular membrane prepared from vessels with different flow conditions. […] The data are expressed as ratio of enzyme activity measured in vessel from reverse flow (RF) or reverse flow with jasplakinolide (RF-Jasp) treatment vs forward flow (FF). […] The data are expressed as ratio of protein band density of reversed flow sample versus that from forward flow sample.
In general terms: In western blotting, separated proteins are transferred to a membrane and probed.

Assay [5] relates to carotid artery wall. As to the kind of experiment: Superoxide in carotid artery wall by dihydroethidine fluorescence (laser confocal microscopy) after flow reversal. The assay is classed as in vivo. Particulars: apocynin 1 mM in drinking water concurrently with carotid flow reversal; vs flow reversal without apocynin. How it is done: The carotid arteries of animals were removed and examined by laser confocal microscopy excitation (514 nm; emission, 605 nm; Objective, 40x. C.3.a. Visualization of NO and O2-Using Fluorescence) following perfusion under conditions of: Control (C), Flow Reversal (FR), and Apocynin+Flow Reversal (AC). The apocynin was administered in drinking water (1 mM) to an animal concurrently with carotid flow reversal. Dihydroethidine (DHE), a fluorescent dye, was used to indicate superoxide in arterial wall.

Assay [6] deals with actin in carotid artery endothelial cells. As to the kind of experiment: Actin immunostain (Alexa Fluor488-phalloidin) of carotid artery rings, in vitro actin depolymerization. The class given is cell-based, swine. To be noted: 10 μM cytochalasin D, 30 minutes, 37° C. How it is done: For actin staining, vessels under different conditions were cut into 4 mm rings and immediately fixed for 2 hours in 4% methanol-free formaldehyde-PBS solution (Thermo Scientific, Rockford, Ill.). For in vitro actin depolymerization immunochemistry, 3 to 4 mm carotid artery ring from control animal were incubated with 10 μM cytochalasin D for 30 minutes. Samples were fixed for 2 hours and then processed for actin staining.
The fixed samples were permeablized by 0.1% tritonX-PBS solution. After non-specific sites were blocked by 1% BSA in PBS, actin was labled by incubating samples with Alexa Fluor488-phalloidin (Invitrogen, Carlsbad, Calif.) for 30 minutes at room temperature. After labeling, each sample was cut into a 3×3 mm piece and mounted on glass slide and covered with a glass cover slip in the presence of 70% glyceral-PBS and sealed with glue. The samples were observed under a Zeiss confocal microscope (Zeiss 510 meta) and images were captured under 100× objective oil lens with excitation at 488 nm and emission at BP 500-530 nm.
All samples were viewed under confocal microscopy (Zeiss 510 meta) with 100× objective with excitation at 488 nm and Emission at BP 500-530 nm.

For assay [7], the system named is p47phox. The experiment in a line: p47phox phosphorylation (phosphoserine immunoprecipitation and western blot), in vitro. Particulars: cytochalasin D treatment in vitro; p<0.05. The assay is classed as cell-based, swine. The protocol: For p47^phox phosphorylation measurements, the total protein with phosphoserine was first immunoprecipitated according to a known method. Briefly, samples were first incubated with rabbit polyclonal antibody to phosphoserine (Abcam, Cambridge, Mass.) for 2 hours at 4° C. Samples were then mixed with Protein G PLUS-Agarose (Santa Cruz Biotechnology, Santa Cruz, Calif.) and incubated overnight at 4° C. Samples were then centrifuged and washed three times with lysis buffer. The pellet was resuspended in loading buffer and denatured. The p47^phox was then measured by western blot.
P47^phox phosphorylation was examined further to understand the molecular basis for increased superoxide production subsequent to actin depolymerization and flow reversal, as shown in FIGS. 7A-7D. The phosphorylated P47^phox was standardized by total P47^phox. The level of phosphorylated P47^phox at basal level in vitro (FIG. 7A) or under forward flow (FF) condition in vivo (FIG. 7C) were taken as 100% and the level of phosphorylated P47^phox after cytochalasin D treatment or under reversed flow (RF) condition were expressed as percent thereof. […] The data are mean and SD of at least three experiments from different animals (*p<0.05).

The test system of assay [8] is actin in carotid artery endothelial cells. To be noted: reported previously; cited from earlier work.

A value given as a limit tells only on which side of the number the result lay.

For the compound `C/C1=C\[C@H](C)C[C@H](C)OC(=O)C[C@H](c2ccc(O)cc2)NC(=O)[C@@H](Cc2c(Br)[nH]c3ccccc23)N(C)C(=O)[C@H](C)NC(=O)[C@@H](C)C1` [jasplakinolide], in assay [1] (0.1 μM jasplakinolide, artery samples under normal forward flow), the “superoxide level vs untreated samples” value is “not changed”. Further, the “increase of superoxide production on reversed blood flow” value in assay [2] (vessel prefilled with 0.1 μM jasplakinolide 10 minutes, reverse flow 2 hrs) is recorded as “prevented”. Further, the “NADPH oxidase activity in vessel with reversed flow vs untreated vessel” value in assay [3] (jasplakinolide treatment (0.1 μM prefill)) is reported as “decreased”. Moreover, the “expression of NADPH oxidase subunits gp91phox and p47phox” value in assay [4] is “not changed”.

In the case of `COc1cc(C(C)=O)ccc1O` [apocynin, 4-hydroxy-3-methoxy-acetophenone], the “amount of superoxide present in artery wall (DHE fluorescence)” value in assay [5] was “reduced the amount of superoxide”. Moreover, the “reversed flow induced superoxide production” value in assay [2] (apocynin bolus 4 mg/kg i.v. then 3.5 μg/kg/min i.v.) is on record as “abolished”. In addition, the “NADPH oxidase enzyme activity” value in assay [3] (samples from animals treated with apocynin) was “reduced”.

Consider `C=C1[C@@H](C)[C@H]2[C@H](Cc3ccccc3)NC(=O)[C@]23[C@H](OC(C)=O)/C=C/[C@@](C)(O)C(=O)[C@@H](C)C/C=C/[C@H]3[C@@H]1O` [cytochalasin D], for which the “increase of superoxide production vs untreated samples” value in assay [1] (10 μM cytochalasin D, artery samples under normal forward flow) is listed as “about 5 fold”. Besides, in assay [1] (cytochalasin D added to samples from reverse flow vessel), the “superoxide production in vessel with reverse flow” value is reported as “further increase”. In addition, in assay [6], the actin filament pattern entry is reported as “significant disruption of actin filaments”. The “p47phox phosphorylation vs untreated sample” value in assay [7] is “increased”. For the same compound, in assay [8], the “cytochalasin D concentration at which all long actin filament bundles were disrupted and replaced by focal aggregates of F-actin” value is no less than 2 µM; the “cytochalasin D concentration at which changes of actin cytoskeleton were visible” value is on record as 20 nM.
